We go through 31 compounds from patent US12509449B2, “Anthelmintic compounds comprising a quinoline structure” (Intervet Inc., priority 2019, dated 2025).

For one test, the system named is Ascaridia galli L3. Nature of the test: In vitro assay Ascaridia galli larval stage 3, minimum effective concentration. Format: cell-based. The following applies: 20 larvae per well, microscopic examination, read-out: MEC (minimum effective concentration) against Ascaridia galli L3. The text has this:
(§1) […] galli (intestinal roundworm of chicken), larval stage 3 (“L3”); and Oesophagostumum dentatum (nodular worm of swine), larval stages 3 and 4 (respectively “L3” and “L4”) where suspended in a nutrient medium and distributed to 96 well plates with 20 larvae per well. The wells were spiked DMSO solutions of the compounds with declining concentration.

For test [1], the system named is Oesophagostumum dentatum L3. Kind of test: In vitro assay Oesophagostumum dentatum larval stage 3, minimum effective concentration. In kind it is cell-based. To be noted: 20 larvae per well, microscopic examination; read-out: MEC (minimum effective concentration) against Oesophagostumum dentatum L3.
Description: as §1

Test [2] addresses T1, human Maxi K channel (BK channel), KCNMA1 (KCa1.1) and beta1 (KCNMB1) subunits (Homo sapiens, UniProt Q12791).
T1 construct: expressed in transfected cells; host or cells: CHO K1
Kind of test: Agonistic activity at the human Maxi K channel (BK channel), membrane potential (FLIPR) in transfected CHO K1 cells. Format: cell-based. To be noted: membrane potential dye, 70 mM KCl. The text has this: A CHO K1 cell line was stably transfected with the KCNMA1 (KCa1.1, U11058) and beta1 (KCNMB1) subunits of the human Maxi K channel (Ponte et al, Molecular Pharmacology 2012, 81(4), 567-577).
The complete measurement takes 150 s.

The target of test [3] is Caenorhabditis elegans slo-1a (Caenorhabditis elegans, UniProt Q95V25). Kind of test: Agonistic activity at C. elegans Slo-1a, membrane potential (FLIPR) in transfected CHO K1 cells. The following applies: EC50 agonistic activity at C. elegans Slo-1a, membrane potential dye, 70 mM KCl.
Sequence of Caenorhabditis elegans slo-1a (Q95V25 whole entry): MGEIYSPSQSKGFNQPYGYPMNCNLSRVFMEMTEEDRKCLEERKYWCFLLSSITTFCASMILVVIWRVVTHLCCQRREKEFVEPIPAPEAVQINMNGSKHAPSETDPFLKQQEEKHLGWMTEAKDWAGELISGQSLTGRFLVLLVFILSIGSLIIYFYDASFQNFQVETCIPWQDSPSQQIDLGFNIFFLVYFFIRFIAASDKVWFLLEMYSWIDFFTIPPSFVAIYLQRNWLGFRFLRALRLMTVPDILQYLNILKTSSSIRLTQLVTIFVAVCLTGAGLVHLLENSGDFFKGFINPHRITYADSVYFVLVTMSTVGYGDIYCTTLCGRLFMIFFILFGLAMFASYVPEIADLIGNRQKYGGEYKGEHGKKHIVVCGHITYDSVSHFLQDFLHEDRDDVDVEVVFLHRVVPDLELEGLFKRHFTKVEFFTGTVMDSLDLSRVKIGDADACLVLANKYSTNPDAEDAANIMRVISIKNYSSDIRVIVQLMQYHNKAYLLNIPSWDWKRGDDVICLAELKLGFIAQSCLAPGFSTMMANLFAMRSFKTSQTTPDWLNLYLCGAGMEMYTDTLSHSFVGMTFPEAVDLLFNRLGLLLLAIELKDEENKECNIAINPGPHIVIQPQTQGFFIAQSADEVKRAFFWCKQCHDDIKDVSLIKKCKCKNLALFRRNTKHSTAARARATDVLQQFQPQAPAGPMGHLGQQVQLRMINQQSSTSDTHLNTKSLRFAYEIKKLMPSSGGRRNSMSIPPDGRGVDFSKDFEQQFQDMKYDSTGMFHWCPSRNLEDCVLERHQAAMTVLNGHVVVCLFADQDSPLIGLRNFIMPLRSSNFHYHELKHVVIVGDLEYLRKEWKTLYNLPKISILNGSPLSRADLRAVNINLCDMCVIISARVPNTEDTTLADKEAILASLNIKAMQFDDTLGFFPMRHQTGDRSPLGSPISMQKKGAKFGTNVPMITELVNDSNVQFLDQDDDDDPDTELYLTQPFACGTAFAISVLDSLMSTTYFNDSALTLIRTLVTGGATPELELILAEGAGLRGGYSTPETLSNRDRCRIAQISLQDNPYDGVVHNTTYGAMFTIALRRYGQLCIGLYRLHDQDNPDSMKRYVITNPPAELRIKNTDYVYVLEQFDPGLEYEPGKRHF
A further test has as its system Haemonchus contortus. Kind of test: In vitro assay Haemonchus contortus exsheathed L3 larvae motility. Format: cell-based. The following applies: 168 h, incubation 7 days, automated microscopy, read-out: ED50 against Haemonchus contortus (motility reduced by 50%). On the procedure:
Solutions of compounds with declining concentrations in DMSO were prepared, diluted with nutrient medium and distributed to 96 well microtiterplates. […]3 larvae of Haemonchus contortus were incubated for 20 min at 37° C. in a water bath, separated by centrifugation and added to the wells with 300 Larvae/well. After incubation for 7 days motility was assessed by automated microscopy. Ivermectin was used as positive control, DMSO as negative control and ED50 values were calculated which represent the concentration for an individual compound that reduces motility by 50% with respect to the […].

For another test, the system named is Dirofilaria immitis L1. Nature of the test: In vitro assay Dirofilaria immitis L1 (microfilaria) motility. Format: cell-based. To be noted: 72 h, incubation 3 days, read-out: EC50 Dirofilaria immitis L1, reduction in motility. On the procedure:
Approximately 500 D. immitis microfilaria were added to a microtiter plate containing a nutrient medium and the test compound in DMSO at varying concentrations. After incubation for 3 days, activity was evaluated as reduction in motility as compared to DMSO as negative control. Compounds were tested in duplicates. Based on the concentration response curves EC50 values were calculated.

For test [4], the system named is Oesophagostumum dentatum L4. Nature of the test: In vitro assay Oesophagostumum dentatum larval stage 4, minimum effective concentration. Format: cell-based. To be noted: 20 larvae per well, microscopic examination; read-out: MEC (minimum effective concentration) against Oesophagostumum dentatum L4.
Description: as §1

For test [5], the system named is Acanthocheilonema viteae L1. Nature of the test: In vitro assay Acanthocheilonema viteae L1 (microfilaria) motility. Format: cell-based. The following applies: 72 h, incubation 3 days, read-out: EC50 Acanthocheilonema viteae L1, reduction in motility. On the procedure: Approximately 500 A. viteae microfilaria were added to a microtiter plate containing a nutrient medium and the test compound in DMSO at varying concentrations. After incubation for 3 days, activity was evaluated as reduction in motility as compared to DMSO as negative control. Compounds were tested in duplicates. Based on the concentration response curves EC50 values were calculated.

T1 sequence (Q12791 1-1178 isoform Q12791-5): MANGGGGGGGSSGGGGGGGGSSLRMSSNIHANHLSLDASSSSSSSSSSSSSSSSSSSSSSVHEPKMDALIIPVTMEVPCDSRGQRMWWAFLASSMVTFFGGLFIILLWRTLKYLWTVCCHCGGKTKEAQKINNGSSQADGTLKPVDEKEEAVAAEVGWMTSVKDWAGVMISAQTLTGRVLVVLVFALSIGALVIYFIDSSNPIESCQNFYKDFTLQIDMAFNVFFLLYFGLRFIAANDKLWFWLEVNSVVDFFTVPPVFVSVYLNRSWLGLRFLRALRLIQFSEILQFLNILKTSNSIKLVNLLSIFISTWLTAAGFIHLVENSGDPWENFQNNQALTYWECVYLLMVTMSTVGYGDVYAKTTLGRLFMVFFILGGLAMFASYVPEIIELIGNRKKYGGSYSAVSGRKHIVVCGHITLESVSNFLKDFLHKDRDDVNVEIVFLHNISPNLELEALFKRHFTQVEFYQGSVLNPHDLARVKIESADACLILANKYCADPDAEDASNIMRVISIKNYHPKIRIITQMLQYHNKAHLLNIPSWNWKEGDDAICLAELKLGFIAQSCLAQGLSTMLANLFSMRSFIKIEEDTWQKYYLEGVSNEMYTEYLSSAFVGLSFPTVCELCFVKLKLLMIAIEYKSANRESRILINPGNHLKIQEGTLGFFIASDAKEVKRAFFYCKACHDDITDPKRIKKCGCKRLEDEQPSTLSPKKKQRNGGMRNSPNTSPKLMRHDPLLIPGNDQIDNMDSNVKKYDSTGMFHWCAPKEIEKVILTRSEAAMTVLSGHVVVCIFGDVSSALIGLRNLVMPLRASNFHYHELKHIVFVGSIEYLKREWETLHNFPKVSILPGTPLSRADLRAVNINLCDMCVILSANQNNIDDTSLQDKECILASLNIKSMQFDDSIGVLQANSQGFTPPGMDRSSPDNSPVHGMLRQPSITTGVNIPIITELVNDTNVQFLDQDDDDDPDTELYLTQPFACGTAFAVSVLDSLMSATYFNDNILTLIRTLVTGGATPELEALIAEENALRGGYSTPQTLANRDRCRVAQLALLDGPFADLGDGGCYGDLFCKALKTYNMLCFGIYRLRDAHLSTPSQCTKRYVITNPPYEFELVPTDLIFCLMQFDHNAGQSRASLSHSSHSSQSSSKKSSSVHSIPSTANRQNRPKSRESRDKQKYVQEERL
T1 sequence (Q16558 whole entry partner): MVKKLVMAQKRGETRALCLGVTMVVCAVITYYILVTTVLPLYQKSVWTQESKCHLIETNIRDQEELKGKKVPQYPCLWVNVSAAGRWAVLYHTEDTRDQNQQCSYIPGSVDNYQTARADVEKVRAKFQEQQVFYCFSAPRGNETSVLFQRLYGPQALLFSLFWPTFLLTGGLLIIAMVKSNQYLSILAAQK

As for `CN(C)c1c(NC(=O)Cc2ccccc2)cnc2c(-c3cccc(Cl)c3Cl)cccc12` [Compound 1], the minimal effective concentration (in the test with Ascaridia galli L3; in test [1]) was no more than 50 µM throughout. In addition, the EC50 in test [2] was greater than 30 µM; in test [3], less than 10 µM.

With `O=C(Nc1cnc2c(-c3cc(Cl)cc(Cl)c3)cccc2c1N1CCOCC1)C1CCCc2ccccc21` (stereo not shown) [Compound 8], the EC50 is less than 50 µM in the test on Haemonchus contortus, 10 to 30 µM in test [2] and less than 1 µM in test [3].

As to `COc1c(NC(=O)C(C)c2ccccc2)cnc2c(-c3cccc(Cl)c3Cl)cccc12` (stereo not shown) [Compound 11], the EC50 with Dirofilaria immitis L1 was less than 10 µM; in test [2], greater than 30 µM.

Consider `O=C(Nc1cnc2c(-c3cccc(Cl)c3Cl)cccc2c1N1CCCC1)C1CCc2ccccc21` (stereo not shown) [Compound 18], for which the minimal effective concentration (in the test with Ascaridia galli L3; in test [4]) was no more than 50 µM in each case. Further, in test [2], the EC50 is greater than 30 µM.

Consider `CC(C(=O)Nc1cnc2c(-c3cccc(Cl)c3Cl)cccc2c1N(C)C)c1ccccc1` (stereo not shown) [Compound 24], for which the minimal effective concentration (in the test on Ascaridia galli L3; in test [1]) was no more than 50 µM in each case. The EC50 is less than 50 µM in the test with Haemonchus contortus, greater than 30 µM in test [2] and less than 10 µM in test [3].

`CN(C)c1c(NC(=O)c2cccc3ccccc23)cnc2c(-c3cccc(Cl)c3Cl)cccc12` [Compound 31]: the EC50 in the test on Haemonchus contortus is less than 50 µM; in test [2] it was greater than 30 µM; in test [3] it was less than 1 µM.

With `CC(C)Oc1c(NC(=O)C2CCOc3ccccc32)cnc2c(-c3cccc(Cl)c3Cl)cccc12` (stereo not shown) [Compound 32], the minimal effective concentration (in the test on Ascaridia galli L3; in test [1]) was no more than 50 µM in each case. This compound had an EC50 in test [2] greater than 30 µM.

Regarding `O=C(Nc1cnc2c(-c3cccc(Cl)c3Cl)cccc2c1N1CCC(O)C1)C1CCOc2ccccc21` (stereo not shown) [Compound 37], the minimal effective concentration (in the test on Ascaridia galli L3; in test [4]) was no more than 50 µM throughout. In addition, the EC50 is 10 to 30 µM in test [2] and less than 1 µM in test [3].

As to `CN(C)c1c(NC(=O)C2CCOc3ccccc32)cnc2c(-c3cccc(Cl)c3F)cccc12` (stereo not shown) [Compound 42], the EC50 was less than 50 µM with Haemonchus contortus, greater than 30 µM in test [2] and less than 1 µM in test [3].

Turning to `O=C(Nc1cnc2c(-c3cccc(Cl)c3Cl)cccc2c1N1CCC(O)C1)C1CCc2ccccc21` (stereo not shown) [Compound 45], the minimal effective concentration (in the test on Ascaridia galli L3; in test [4]) was no more than 50 µM throughout. The EC50 in test [2] is 10 to 30 µM; in test [3], less than 1 µM.

As to `CN(C)c1cccc(CC(=O)Nc2cnc3c(-c4cccc(Cl)c4Cl)cccc3c2N(C)C)c1` [Compound 49], the minimal effective concentration in test [4] is no more than 50 µM. Moreover, the EC50 in test [2] is greater than 30 µM; in test [3], less than 10 µM.

`O=C(Nc1cnc2c(-c3cc(Cl)cc(Cl)c3)cccc2c1O)C1CCCc2ccccc21` (stereo not shown) [Compound 63]: the EC50 was less than 10 µM in the test with Dirofilaria immitis L1 and greater than 30 µM in test [2].

Take `CCOc1c(NC(=O)C2CCCc3ccccc32)cnc2c(-c3cc(Cl)cc(Cl)c3)cccc12` (stereo not shown) [Compound 75]: the minimal effective concentration (in the test with Ascaridia galli L3; in test [1]) was no more than 50 µM each time. The EC50 was greater than 30 µM in test [2] and less than 1 µM in test [3].

In the case of `CCOc1c(NC(=O)C2CCc3ccccc32)cnc2c(-c3cc(Cl)cc(Cl)c3)cccc12` (stereo not shown) [Compound 79], the minimal effective concentration (in the test on Ascaridia galli L3; in test [1]) was no more than 50 µM each time. Also, the EC50 was less than 50 µM in the test with Haemonchus contortus, greater than 30 µM in test [2] and less than 10 µM in test [3].

Regarding `CCNc1c(NC(=O)C2CCOc3ccccc32)cnc2c(-c3cccc(Cl)c3Cl)cccc12` (stereo not shown) [Compound 86], the minimal effective concentration in the test on Ascaridia galli L3 was no more than 50 µM. Also, the EC50 in the test on Haemonchus contortus is less than 50 µM; in test [2], greater than 30 µM.

On to `O=C(Nc1cnc2c(-c3cccc(Cl)c3Cl)cccc2c1NCCO)C1CCOc2ccccc21` (stereo not shown) [Compound 90], for which the minimal effective concentration (in the test on Ascaridia galli L3; in test [1]) was no more than 50 µM in each case. Besides, the EC50 in test [2] was greater than 30 µM; in test [3], less than 10 µM.

In the case of `CN(CCO)c1c(NC(=O)C2CCOc3ccccc32)cnc2c(-c3cccc(Cl)c3Cl)cccc12` (stereo not shown) [Compound 92], the minimal effective concentration in test [4] is no more than 50 µM. For the same compound, the EC50 in test [2] is greater than 30 µM; in test [3], less than 10 µM.

Consider `CCN(C)c1c(NC(=O)C2CCCc3ccccc32)cnc2c(-c3cccc(Cl)c3Cl)cccc12` (stereo not shown) [Compound 98], for which the EC50 is less than 10 µM in test [5] and greater than 30 µM in test [2].

For the compound `O=C(Nc1cnc2c(-c3cc(Cl)cc(Cl)c3)c(F)ccc2c1N1CCOCC1)C1CCCc2ccccc21` (stereo not shown) [Compound 116], the minimal effective concentration in the test on Ascaridia galli L3 is no more than 50 µM. Besides, the EC50 in the test on Haemonchus contortus was less than 50 µM; in test [2] it was greater than 30 µM; in test [3], less than 1 µM.

In the case of `CC(C)Oc1c(NC(=O)C2CCCc3ccccc32)cnc2c(-c3cccc(Cl)c3Cl)c(F)ccc12` (stereo not shown) [Compound 122], the minimal effective concentration (in the test on Ascaridia galli L3; in test [1]) was no more than 50 µM throughout. Further, the EC50 in test [2] was greater than 30 µM.

`CC(C)Oc1c(NC(=O)C2CCOc3ccccc32)cnc2c(-c3cc(Cl)cc(Cl)c3)c(F)ccc12` (stereo not shown) [Compound 127]: the minimal effective concentration (in the test on Ascaridia galli L3; in test [1]) was no more than 50 µM in each case. In addition, the results for the EC50 in test [5] and in test [2] were less than 10 µM and greater than 30 µM, respectively.

In the case of `CC(C)Oc1c(NC(=O)C2CCc3ccccc32)cnc2c(-c3cccc(Cl)c3Cl)c(F)ccc12` (stereo not shown) [Compound 142], the minimal effective concentration (in the test with Ascaridia galli L3; in test [1]) was no more than 50 µM each time. The compound further displayed an EC50 in test [2] greater than 30 µM.

Turning to `CN(C)c1c(NC(=O)c2cccc3ccccc23)cnc2c(-c3cc(Cl)cc(Cl)c3)c(F)ccc12` [Compound 145], the EC50 with Haemonchus contortus was less than 50 µM; in test [2], greater than 30 µM; in test [3] it was less than 1 µM.

Turning to `CC(C)Oc1c(NC(=O)c2cccc3ccccc23)cnc2c(-c3cc(Cl)cc(Cl)c3)c(F)ccc12` [Compound 147], the minimal effective concentration in test [1] is no more than 50 µM. Besides, the EC50 in test [5] is less than 10 µM; in test [2] it was greater than 30 µM.

Take `CN(C)c1c(NC(=O)[C@H]2CCCc3ccccc32)cnc2c(-c3cc(Cl)cc(Cl)c3)cccc12` [Compound 156]: the EC50 in the test with Haemonchus contortus was less than 50 µM; in test [2] it was greater than 30 µM; in test [3], less than 1 µM.

On to `CN(C(=O)C1CCOc2ccccc21)c1cnc2c(-c3cccc(Cl)c3Cl)cccc2c1N1CCOCC1` (stereo not shown) [Compound 158], for which the minimal effective concentration in test [1] and in test [4] was no more than 50 µM throughout. In test [2], this compound came in with an EC50 greater than 30 µM.

On to `CCN(C(=O)C1CCOc2ccccc21)c1cnc2c(-c3cccc(Cl)c3Cl)cccc2c1N1CCOCC1` (stereo not shown) [Compound 159], for which the minimal effective concentration in the test on Ascaridia galli L3 was no more than 50 µM. In addition, the EC50 is less than 10 µM in test [5] and greater than 30 µM in test [2].

For the compound `CCN(C(=O)C1CCOc2ccccc21)c1cnc2c(-c3cc(Cl)cc(Cl)c3)cccc2c1N(C)C` (stereo not shown) [Compound 162], the minimal effective concentration (with Ascaridia galli L3; in test [1]) was no more than 50 µM throughout. Besides, the values for the EC50 in test [5] and in test [2] were less than 10 µM and greater than 30 µM, respectively.

Turning to `CCN(C(=O)C1CCOc2ccccc21)c1cnc2c(-c3cc(Cl)cc(Cl)c3)cccc2c1N1CCOCC1` (stereo not shown) [Compound 163], the minimal effective concentration in test [4] was no more than 50 µM. Besides, the EC50 is less than 10 µM in test [5] and greater than 30 µM in test [2].

For the compound `Cc1c(NC(=O)C2CCCc3ccccc32)cnc2c(-c3cc(Cl)cc(Cl)c3)cccc12` (stereo not shown) [Compound 192], the minimal effective concentration in test [4] was no more than 50 µM. Besides, the EC50 in test [2] is greater than 30 µM; in test [3], less than 10 µM.

Turning to `C=C(C)c1c(NC(=O)C2CCc3ccccc32)cnc2c(-c3cccc(Cl)c3Cl)cccc12` (stereo not shown) [Compound 201], the minimal effective concentration (with Ascaridia galli L3; in test [1]) was no more than 50 µM throughout. Besides, the EC50 in test [2] was greater than 30 µM; in test [3], less than 1 µM.
